In PMC4457528, “Identification of Novel Small Molecule Inhibitors of Oncogenic RET Kinase” (PLoS ONE, 2015):
Where two headings read alike, the source gives them in different places.

Assays:
Experiment in all cases: KinomeScan kinase panel, single concentration 10 µM
Type in all cases: binding
[1] = target: T1, KinomeScan kinase panel (Homo sapiens, UniProt P04629); conditions: 10 µM, read-out: score (%)
T1 construct: purchased DiscoveRx (KinomeScan)

[2] = target: T2, KinomeScan kinase panel (Homo sapiens, UniProt P07947); conditions: kinase YES; 10 µM; read-out: score (%)
T2 construct: purchased DiscoveRx (KinomeScan)
T2 sequence (P07947 whole entry): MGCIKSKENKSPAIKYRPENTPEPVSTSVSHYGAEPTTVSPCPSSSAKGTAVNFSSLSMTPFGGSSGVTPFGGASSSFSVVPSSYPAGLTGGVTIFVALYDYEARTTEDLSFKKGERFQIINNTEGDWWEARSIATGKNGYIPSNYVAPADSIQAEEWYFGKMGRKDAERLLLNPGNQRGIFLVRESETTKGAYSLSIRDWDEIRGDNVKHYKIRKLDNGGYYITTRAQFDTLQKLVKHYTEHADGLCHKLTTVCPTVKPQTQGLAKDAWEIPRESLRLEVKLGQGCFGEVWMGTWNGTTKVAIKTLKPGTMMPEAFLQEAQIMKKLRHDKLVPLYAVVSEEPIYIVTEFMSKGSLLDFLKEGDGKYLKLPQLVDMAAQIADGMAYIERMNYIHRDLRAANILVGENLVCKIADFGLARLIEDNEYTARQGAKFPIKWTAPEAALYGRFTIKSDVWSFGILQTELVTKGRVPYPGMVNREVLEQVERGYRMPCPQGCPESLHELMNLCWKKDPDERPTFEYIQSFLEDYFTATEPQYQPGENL

[3] = target: T3, KinomeScan kinase panel (Homo sapiens, UniProt P15735); conditions: PHKG2, 10 µM; read-out: score (%)
T3 construct: purchased DiscoveRx (KinomeScan)
T3 sequence (P15735 1-406): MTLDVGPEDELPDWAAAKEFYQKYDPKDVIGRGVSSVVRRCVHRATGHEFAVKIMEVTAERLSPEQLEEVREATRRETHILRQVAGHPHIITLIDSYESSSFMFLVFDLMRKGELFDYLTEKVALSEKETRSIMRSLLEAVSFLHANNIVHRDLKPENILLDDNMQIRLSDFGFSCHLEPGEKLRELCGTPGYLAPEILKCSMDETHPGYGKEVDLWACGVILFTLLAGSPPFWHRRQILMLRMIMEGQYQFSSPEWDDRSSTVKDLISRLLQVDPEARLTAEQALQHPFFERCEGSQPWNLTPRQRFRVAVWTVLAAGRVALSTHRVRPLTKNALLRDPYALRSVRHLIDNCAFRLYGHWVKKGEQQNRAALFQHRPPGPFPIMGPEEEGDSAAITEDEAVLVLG

[4] = target: T4, KinomeScan kinase panel (Homo sapiens, UniProt P17948); conditions: FLT1, 10 µM; read-out: score (%)
T4 construct: purchased DiscoveRx (KinomeScan)
T4 sequence (P17948 27-1338): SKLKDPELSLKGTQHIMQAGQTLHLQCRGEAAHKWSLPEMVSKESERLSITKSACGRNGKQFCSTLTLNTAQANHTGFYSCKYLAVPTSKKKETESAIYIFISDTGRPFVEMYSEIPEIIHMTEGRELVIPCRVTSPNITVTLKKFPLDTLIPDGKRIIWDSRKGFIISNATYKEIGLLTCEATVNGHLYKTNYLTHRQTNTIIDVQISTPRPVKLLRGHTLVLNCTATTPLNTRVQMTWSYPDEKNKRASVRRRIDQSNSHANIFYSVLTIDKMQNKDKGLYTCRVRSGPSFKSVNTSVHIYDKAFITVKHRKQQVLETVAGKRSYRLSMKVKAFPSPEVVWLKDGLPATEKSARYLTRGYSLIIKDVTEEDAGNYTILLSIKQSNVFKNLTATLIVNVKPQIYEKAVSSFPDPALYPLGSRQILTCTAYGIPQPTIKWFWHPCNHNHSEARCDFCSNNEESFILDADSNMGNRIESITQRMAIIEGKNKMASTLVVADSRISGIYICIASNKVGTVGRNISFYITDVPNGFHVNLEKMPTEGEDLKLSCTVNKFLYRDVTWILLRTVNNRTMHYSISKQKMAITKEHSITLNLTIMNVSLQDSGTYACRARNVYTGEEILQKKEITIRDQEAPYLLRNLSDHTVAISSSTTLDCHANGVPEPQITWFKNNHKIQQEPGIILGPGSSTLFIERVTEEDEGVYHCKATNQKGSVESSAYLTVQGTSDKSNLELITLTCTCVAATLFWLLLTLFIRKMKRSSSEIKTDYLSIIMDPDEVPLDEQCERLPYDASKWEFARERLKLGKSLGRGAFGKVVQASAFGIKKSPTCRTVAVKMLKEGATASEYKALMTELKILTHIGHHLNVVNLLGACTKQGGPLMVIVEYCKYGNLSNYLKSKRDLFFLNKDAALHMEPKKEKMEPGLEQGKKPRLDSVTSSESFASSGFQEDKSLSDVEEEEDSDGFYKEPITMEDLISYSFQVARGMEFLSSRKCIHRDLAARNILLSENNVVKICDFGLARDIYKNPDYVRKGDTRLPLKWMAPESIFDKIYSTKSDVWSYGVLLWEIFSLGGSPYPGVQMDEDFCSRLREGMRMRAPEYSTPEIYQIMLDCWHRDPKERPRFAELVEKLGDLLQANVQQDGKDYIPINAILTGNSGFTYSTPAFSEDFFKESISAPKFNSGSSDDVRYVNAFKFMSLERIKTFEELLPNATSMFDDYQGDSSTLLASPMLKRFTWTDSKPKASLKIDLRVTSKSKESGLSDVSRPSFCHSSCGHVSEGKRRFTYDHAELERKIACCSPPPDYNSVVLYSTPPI

[5] = target: T5, KinomeScan kinase panel (Homo sapiens, UniProt P28482); conditions: ERK2, 10 µM; read-out: score (%)
T5 construct: purchased DiscoveRx (KinomeScan)
T5 sequence (P28482 whole entry): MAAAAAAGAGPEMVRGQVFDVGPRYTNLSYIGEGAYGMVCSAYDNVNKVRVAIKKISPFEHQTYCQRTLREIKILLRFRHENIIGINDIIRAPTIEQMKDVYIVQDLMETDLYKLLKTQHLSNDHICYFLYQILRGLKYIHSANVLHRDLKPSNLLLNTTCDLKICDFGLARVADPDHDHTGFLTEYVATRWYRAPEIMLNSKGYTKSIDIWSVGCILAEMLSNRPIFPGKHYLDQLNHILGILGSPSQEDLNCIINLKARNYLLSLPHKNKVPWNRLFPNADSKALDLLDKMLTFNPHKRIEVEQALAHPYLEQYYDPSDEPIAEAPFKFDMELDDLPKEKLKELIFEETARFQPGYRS

[6] = target: T6, KinomeScan kinase panel (Homo sapiens, UniProt Q02156); conditions: 10 µM, read-out: score (%)
T6 construct: purchased DiscoveRx (KinomeScan)
T6 sequence (Q02156 1-737): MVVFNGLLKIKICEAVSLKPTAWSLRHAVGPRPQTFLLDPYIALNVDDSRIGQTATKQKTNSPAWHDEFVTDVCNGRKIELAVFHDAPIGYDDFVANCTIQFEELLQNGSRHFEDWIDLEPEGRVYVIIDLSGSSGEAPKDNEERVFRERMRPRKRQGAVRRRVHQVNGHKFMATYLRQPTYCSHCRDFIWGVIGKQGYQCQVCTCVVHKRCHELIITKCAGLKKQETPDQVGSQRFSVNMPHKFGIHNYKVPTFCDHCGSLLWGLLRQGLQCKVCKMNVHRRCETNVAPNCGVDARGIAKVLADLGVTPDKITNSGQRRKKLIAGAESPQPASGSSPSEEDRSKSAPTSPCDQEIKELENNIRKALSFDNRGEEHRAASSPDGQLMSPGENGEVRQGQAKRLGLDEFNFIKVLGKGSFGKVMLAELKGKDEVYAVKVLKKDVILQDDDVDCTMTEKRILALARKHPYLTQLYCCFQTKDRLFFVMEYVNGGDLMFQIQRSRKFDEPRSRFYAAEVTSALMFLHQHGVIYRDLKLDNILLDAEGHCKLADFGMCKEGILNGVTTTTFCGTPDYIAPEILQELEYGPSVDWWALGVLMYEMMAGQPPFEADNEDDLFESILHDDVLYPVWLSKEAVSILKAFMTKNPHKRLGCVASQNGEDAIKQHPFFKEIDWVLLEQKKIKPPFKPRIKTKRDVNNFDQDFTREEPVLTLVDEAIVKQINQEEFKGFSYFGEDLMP

[7] = target: T7, KinomeScan kinase panel (Homo sapiens, UniProt Q06418); conditions: kinase TYRO3; 10 µM; read-out: score (%)
T7 construct: purchased DiscoveRx (KinomeScan)
T7 sequence (Q06418 41-890): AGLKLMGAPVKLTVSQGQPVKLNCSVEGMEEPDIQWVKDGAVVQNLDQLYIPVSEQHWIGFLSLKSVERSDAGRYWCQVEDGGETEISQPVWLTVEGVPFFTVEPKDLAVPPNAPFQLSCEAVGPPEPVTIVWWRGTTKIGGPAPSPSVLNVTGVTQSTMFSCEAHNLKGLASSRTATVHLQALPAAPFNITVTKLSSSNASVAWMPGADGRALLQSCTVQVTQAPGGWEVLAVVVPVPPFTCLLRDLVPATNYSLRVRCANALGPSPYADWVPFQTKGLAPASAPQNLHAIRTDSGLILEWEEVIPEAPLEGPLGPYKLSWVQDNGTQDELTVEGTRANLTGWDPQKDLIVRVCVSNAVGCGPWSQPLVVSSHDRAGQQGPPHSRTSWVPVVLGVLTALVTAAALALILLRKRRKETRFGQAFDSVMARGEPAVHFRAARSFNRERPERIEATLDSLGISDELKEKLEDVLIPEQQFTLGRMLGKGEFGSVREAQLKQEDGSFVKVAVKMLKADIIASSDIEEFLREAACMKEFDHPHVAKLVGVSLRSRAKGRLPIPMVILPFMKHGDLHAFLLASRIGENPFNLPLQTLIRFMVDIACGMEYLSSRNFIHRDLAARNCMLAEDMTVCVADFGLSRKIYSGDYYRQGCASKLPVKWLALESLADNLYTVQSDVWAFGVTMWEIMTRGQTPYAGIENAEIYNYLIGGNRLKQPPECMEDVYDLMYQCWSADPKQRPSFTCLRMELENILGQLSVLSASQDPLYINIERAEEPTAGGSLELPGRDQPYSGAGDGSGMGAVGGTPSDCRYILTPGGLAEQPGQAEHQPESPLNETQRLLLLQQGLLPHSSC

[8] = target: T8, KinomeScan kinase panel (Homo sapiens, UniProt Q8IW41); conditions: MAPKAPK5, 10 µM; read-out: score (%)
T8 construct: purchased DiscoveRx (KinomeScan)
T8 sequence (Q8IW41 1-473): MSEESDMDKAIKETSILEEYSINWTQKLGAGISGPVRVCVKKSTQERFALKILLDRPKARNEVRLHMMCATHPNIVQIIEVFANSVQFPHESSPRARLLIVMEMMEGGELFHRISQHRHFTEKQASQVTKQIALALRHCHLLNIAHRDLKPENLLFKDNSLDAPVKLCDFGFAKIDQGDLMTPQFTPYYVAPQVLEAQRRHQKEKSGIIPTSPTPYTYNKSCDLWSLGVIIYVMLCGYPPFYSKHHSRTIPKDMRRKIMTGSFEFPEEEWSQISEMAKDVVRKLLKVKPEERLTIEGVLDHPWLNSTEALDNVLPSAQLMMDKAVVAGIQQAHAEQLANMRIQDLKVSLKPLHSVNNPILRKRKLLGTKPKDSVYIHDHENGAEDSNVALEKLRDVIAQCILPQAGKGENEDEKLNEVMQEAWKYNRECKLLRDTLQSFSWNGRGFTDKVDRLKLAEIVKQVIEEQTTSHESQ

[9] = target: T9, KinomeScan kinase panel (Homo sapiens, UniProt Q96RR4); conditions: CAMKK2, 10 µM; read-out: score (%)
T9 construct: purchased DiscoveRx (KinomeScan)
T9 sequence (Q96RR4 whole entry): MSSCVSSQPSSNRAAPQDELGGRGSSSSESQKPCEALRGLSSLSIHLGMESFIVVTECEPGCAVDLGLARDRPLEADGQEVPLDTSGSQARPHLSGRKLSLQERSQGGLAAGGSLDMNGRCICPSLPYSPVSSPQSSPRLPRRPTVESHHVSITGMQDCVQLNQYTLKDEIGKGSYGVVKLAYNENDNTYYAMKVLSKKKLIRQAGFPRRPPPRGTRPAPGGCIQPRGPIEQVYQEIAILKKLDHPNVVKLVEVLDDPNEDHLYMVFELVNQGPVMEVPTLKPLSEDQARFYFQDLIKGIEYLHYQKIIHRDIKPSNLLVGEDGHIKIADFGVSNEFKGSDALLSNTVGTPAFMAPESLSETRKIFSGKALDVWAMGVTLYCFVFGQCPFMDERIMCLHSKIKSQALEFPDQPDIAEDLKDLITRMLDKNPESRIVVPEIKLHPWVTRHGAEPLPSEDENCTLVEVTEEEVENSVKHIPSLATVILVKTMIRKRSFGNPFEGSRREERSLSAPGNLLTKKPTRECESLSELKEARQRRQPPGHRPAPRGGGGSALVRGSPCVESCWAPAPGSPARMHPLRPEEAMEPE

T1 sequence (P04629 33-796): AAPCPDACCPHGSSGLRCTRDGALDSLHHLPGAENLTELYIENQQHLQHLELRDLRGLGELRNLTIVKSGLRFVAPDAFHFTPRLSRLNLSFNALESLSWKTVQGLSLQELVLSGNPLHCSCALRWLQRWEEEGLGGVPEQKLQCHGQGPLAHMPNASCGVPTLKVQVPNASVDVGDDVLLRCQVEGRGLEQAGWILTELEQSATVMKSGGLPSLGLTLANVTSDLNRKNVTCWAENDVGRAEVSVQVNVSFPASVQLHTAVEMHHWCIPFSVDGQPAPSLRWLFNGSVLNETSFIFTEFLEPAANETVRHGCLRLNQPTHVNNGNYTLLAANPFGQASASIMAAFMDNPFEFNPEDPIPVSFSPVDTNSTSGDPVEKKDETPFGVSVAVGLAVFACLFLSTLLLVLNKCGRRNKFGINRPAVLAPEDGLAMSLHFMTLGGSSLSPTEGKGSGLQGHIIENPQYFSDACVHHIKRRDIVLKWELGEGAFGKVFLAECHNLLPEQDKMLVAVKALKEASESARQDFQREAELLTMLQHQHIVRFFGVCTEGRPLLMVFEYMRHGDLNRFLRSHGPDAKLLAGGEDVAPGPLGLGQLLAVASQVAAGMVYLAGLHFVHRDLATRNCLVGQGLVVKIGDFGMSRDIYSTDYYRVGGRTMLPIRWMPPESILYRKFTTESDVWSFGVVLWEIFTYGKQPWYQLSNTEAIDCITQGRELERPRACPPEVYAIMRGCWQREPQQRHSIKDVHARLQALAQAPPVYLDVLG

Row | remaining binding at 10 µM ([1]; TRKA) | SMILES | remaining binding at 10 µM ([1]; kinase TRKA) | remaining binding at 10 µM [2] | remaining binding at 10 µM [3] | remaining binding at 10 µM [4] | remaining binding at 10 µM [5] | remaining binding at 10 µM ([6]; PRKCE) | remaining binding at 10 µM [7] | remaining binding at 10 µM [8] | remaining binding at 10 µM [9] | remaining binding at 10 µM ([6]; kinase PRKCE)
1 | – | CCN1CCN(Cc2ccc(NC(=O)c3ccc(C)c(NC(=O)c4cncc(-c5cccs5)c4)c3)cc2C(F)(F)F)CC1 [ALW-II-41-27] | 4.4% | 0.1% | > 30% | 1% | > 30% | 5% | > 30% | > 30% | > 30% | –
2 | 8.2% | CCN1CCN(Cc2ccc(NC(=O)c3ccc(C)c(/C=C/c4cnc5[nH]ccc5c4Cl)c3)cc2C(F)(F)F)CC1 [HG-6-63-01, (E)-3-(2-(4-chloro-1H-pyrrolo[2,3-b]pyridin-5-yl)vinyl)-N-(4-((4-ethylpiperazin-1-yl)methyl)-3-(trifluoromethyl)phenyl)-4-methylbenzamide] | – | 0.85% | > 30% | 0.2% | > 30% | > 30% | > 30% | > 30% | > 30% | –
3 | – | CCN1CCN(Cc2ccc(NC(=O)c3ccc(C)c(C#Cc4cccnc4)c3)cc2C(F)(F)F)CC1 [XMD15-44] | 0.35% | 0.1% | 92% | 0.5% | > 30% | – | 100% | > 30% | 7.8% | 54%
